Data published in PMC7059629 (Letters in drug design & discovery, 2019).

Key:
Format in all cases: cell-based
[1] = biological target: rat mGlu2 (Rattus norvegicus, UniProt P31421); test: mGlu2 homodimer thallium flux assay; conditions: rat mGlu2-HEK293 cells, EC20 glutamate
[2] = biological target: rat mGlu2/4 heterodimer (Rattus norvegicus, UniProt P31421+P31423); test: mGlu2/4 heterodimer PAM thallium flux assay; conditions: for mGlu2/4 % Glu Max: ±SEM
[3] = biological target: homodimeric mGlu4 (Homo sapiens, UniProt Q14833); test: mGlu4 Gqi5 calcium assay
[4] = rat mGlu2/4-HEK293 cells, thallium flux, EC20 glutamate

| Compound | mGlu2 pEC50 (±SEM) [1] | mGlu2 % Glu Max ([1]; ±SEM) | mGlu2/4 pEC50 (±SEM) [2, 4] | mGlu2/4 % Glu Max [2, 4] | EC50 [3] | EC50 [2] |
| --- | --- | --- | --- | --- | --- | --- |
| Cc1nc(-c2ccc(OCC(C)C)c(C#N)c2)sc1C(=O)NC1CCOCC1 [11a, 2-(3-cyano-4-iosbutoxyphenyl)-4-methyl-N-(tetrahydro-2H-pyran-4-yl)thiazole-5-carboxamide] | 5.32±0.02 | 73±30 % Glu Max | 5.28±0.03 | 35±2 % Glu Max |  |  |
| NC(=O)[C@@H]1CCCC[C@@H]1C(=O)Nc1ccc(Cl)c(Cl)c1 [compound 5, Lu AF21934] |  |  |  | 89 % Glu Max |  |  |
| Cc1nc(-c2ccc(OCC(C)C)c(C#N)c2)sc1C(=O)O [compound 9, febuxostat] |  |  |  | 52.4±3.7 % Glu Max | > 30 µM | 3.39 µM |
